In US11384096B2, “Substituted azetidine dihydrothienopyridines and their use as phosphodiesterase inhibitors” (UNION therapeutics A/S, priority 2017, dated 2022) one finds IC50 data, which are given here for 7 molecules.

Structures are written as SMILES.

Test [1] has as its system Human peripheral blood mononuclear cells (PBMC), TNF-α release. Briefly: TNF-α release in LPS-stimulated PBMC. The test is classed as cell-based. The note with it: 30 minutes pre-incubation, stimulated for 18 hours with lipopolysaccharide, read-out: TNF-α IC50 range. As to the method:
Human peripheral blood mononuclear cells (PBMC) were isolated from buffy coats. The blood is mixed with saline at a ratio of 1:1, and the PBMC were isolated using Lymphoprep Tubes™ (Nycomed, Norway). The PBMC were suspended in RPMI1640 with 0.5% human serum albumin, pen/strep and 2 mM L-glutamine at a concentration of 5×105 c/ml. The cells were pre-incubated for 30 minutes with the test compounds in 96 well tissue culture plates and stimulated for 18 hours with lipopolysaccharide […] (Sigma). TNF-α concentration in the supernatants was measured using homogeneous time-resolved fluorescence resonance (TR-FRET). The assay is quantified by measuring fluorescence at 665 nm (proportional to TNF-α concentration) and 620 nm (control).
Results were expressed as IC50 values calculated from inhibition curves using as positive controls the secretion in LPS stimulated wells and as negative controls the secretion in unstimulated cells.

The target of test [2] is human PDE4D catalytic domain (Homo sapiens (Human), UniProt Q08499). In words: PDE4 Assay (TR-FRET, cAMP cleavage). The test is classed as biochemical. The note with it: 50% inhibition of substrate cleavage, read-out: PDE4 IC50 range. As to the method:
The human PDE4D catalytic domain (UniProt no. Q08499 [[…]]) was incubated with a mixture of non-labelled cAMP (cyclic adenosine monophosphate) and fluorescein amidite (FAM) conjugated cAMP and titrated test or reference compound. Following brief incubation the enzymatic reaction was stopped by addition of binding buffer containing nanoparticles with immobilized trivalent metal ions capable of binding 1) AMP phospho groups and 2) terbium (Tb) donor fluorophores. Subsequent excitation of the Tb donor triggers time-resolved FRET to adjacent FAM acceptor molecules resulting in light emission. In the presence of a PDE4 inhibitor, AMP generation was reduced resulting in a lower fluorescence signal. The cAMP phosphodiester is not bound by the detection system.
The results were calculated as the molar concentrations resulting in 50% inhibition of the substrate cleavage compared to controls samples, and are expressed as IC50 (nM).
In general terms: TR-FRET usually uses a lanthanide donor and a delayed reading to cut background.

Sequence of human PDE4D catalytic domain (Q08499 380-740 limits assumed): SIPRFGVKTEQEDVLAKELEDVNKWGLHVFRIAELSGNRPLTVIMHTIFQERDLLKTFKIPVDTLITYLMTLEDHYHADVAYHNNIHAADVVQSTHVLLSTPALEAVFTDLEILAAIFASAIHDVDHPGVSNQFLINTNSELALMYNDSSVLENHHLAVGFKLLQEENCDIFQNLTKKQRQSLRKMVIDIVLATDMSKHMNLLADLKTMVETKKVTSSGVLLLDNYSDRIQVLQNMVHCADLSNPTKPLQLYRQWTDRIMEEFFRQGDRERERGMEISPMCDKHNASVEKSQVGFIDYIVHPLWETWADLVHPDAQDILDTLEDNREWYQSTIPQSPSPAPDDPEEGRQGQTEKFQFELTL

Take `[O-][S+]1CCc2nc(N3CC(c4ccc(F)cc4)C3)cc(NC3CCOCC3)c21` (stereo in doubt) [Example 1, (1R)-5-(3-(4-Fluorophenyl)azetidin-1-yl)-7-((tetrahydro-2H-pyran-4-yl)amino)-2,3-dihydrothieno[3,2-b]pyridine 1-oxide]: the results for the IC50 in test [1] and in test [2] were under 10 nM and 10 to 50 nM, respectively.

As for `COC(=O)N1CCC[C@@H](Nc2cc(N3CC(c4ccccc4)C3)nc3c2[S@+]([O-])CC3)C1` [Example 3], the concentration for half-maximal inhibition (IC50) in test [1] and in test [2] was under 10 nM in each case.

`[O-][S+]1CCc2nc(N3CC(Oc4ccc(F)cc4)C3)cc(NC3CCOCC3)c21` (stereo in doubt) [Example 4, (1R)-5-(3-(4-Fluorophenoxy)azetidin-1-yl)-7-((tetrahydro-2H-pyran-4-yl)amino)-2,3-dihydrothieno[3,2-b]pyridine-1-oxide]: the IC50 in test [1] and in test [2] was 10 to 50 nM throughout.

Take `[O-][S@+]1CCc2nc(N3CC(c4ccccc4)C3)cc(NC3CCOCC3)c21` [Example 7, (1R)-5-(3-Phenylazetidin-1-yl)-7-((tetrahydro-2H-pyran-4-yl)amino)-2,3-dihydrothieno[3,2-b]pyridine-1-oxide]: the half-maximal inhibitory concentration (IC50) in test [1] and in test [2] was 10 to 50 nM each time.

On to `CC(=O)N1CC[C@H](Nc2cc(N3CC(Oc4ccc(F)cc4)C3)nc3c2[S@+]([O-])CC3)C1` [Example 6, 1-[(3S)-3-[[(1R)-5-[3-(4-Fluorophenoxy)azetidin-1-yl]-1-oxido-2,3-dihydrothieno[3,2-b]pyridin-7-yl]amino]pyrrolidin-1-yl]ethanone], for which the half-maximal inhibitory concentration (IC50) in test [1] was 10 to 50 nM; in test [2], under 10 nM.

Take `COC(=O)N1CC[C@H](Nc2cc(N3CC(Oc4ccc(F)cc4)C3)nc3c2[S@+]([O-])CC3)C1` [Example 5, Methyl (3S)-3-[[(1R)-5-[3-(4-fluorophenoxy)azetidin-1-yl]-1-oxido-2,3-dihydrothieno[3,2-b]pyridine-7-yl]amino]pyrrolidine-1-carboxylate]: the IC50 in test [1] and in test [2] was 50 to 150 nM throughout.

Turning to `COC(=O)N1CCC[C@@H](Nc2cc(N3CC(c4ccc(F)cc4)C3)nc3c2[S@+]([O-])CC3)C1` [Example 2, Methyl (3R)-3-[[(1R)-5-[3-(4-fluorophenyl)azetidin-1-yl]-1-oxido-2,3-dihydrothieno-[3,2-b]pyridin-7-yl]amino]piperidine-1-carboxylate], the IC50 in test [1] and in test [2] was under 10 nM each time.

One may read the IC50 as the midpoint of a concentration-inhibition curve.
